Results as given in ChEMBL document CHEMBL5442168, “ASAP - In vitro liver microsomal stability” (2024).
Where “and” joins values, the source holds several entries; their conditions need not be identical. Equal values may be shown once.

Legend:
[1] = (§1) Human liver microsomal stability of compound in microsomal protein, PBS buffer pH 7.4, NADPH, glucose-6-phosphate and glucose-6-phosphate dehydrogenase media. Aliquotes were taken at 5 time points and after stopping the reaction, supernatants were analyzed using HPLC coupled with a tandem mass spectrometer. The elimination constant, half-life, and intrinsic clearance are determined as results using linear regression analysis. The assay has been performed by Enamine biological services, Bienta Ltd.The protocol is publicly available: dx.doi.org/10.17504/protocols.io.5qpvokdb9l4o/v1; assay type: ADME, microsomes, Microsome; conditions: for half-life / microsomal CLint: liver microsomes
[2] = as §1, with “Mouse” for “Human”; assay type: ADME, microsomes, Microsome; conditions: for half-life / microsomal CLint: liver microsomes
Throughout, for Remaining (without cofactor): time not given here.
Throughout, for Remaining: time not given here.

half-life [1] [min] | microsomal CLint [1] [µL/min/mg] | Remaining ([1]; microsomes) [%] | Remaining (without cofactor) ([1]; microsomes) | half-life [2] [min] | microsomal CLint [2] [µL/min/mg] | Remaining ([2]; microsomes) | Remaining (without cofactor) ([2]; microsomes) | CLint ([1]; microsomes) | T1/2 ([1]; microsomes) | CLint ([2]; microsomes) [µL/min/mg] | T1/2 ([2]; microsomes) [min] | SMILES
25 | 67 | 33 | 107% | 35.3 | 47 | 42% | 106% | – | – | – | – | CNC(=O)c1cc2c(N[C@H](c3ccc4c(c3)S(=O)(=O)CCC4)C(C)C)ncnc2[nH]1
– | – | – | 96% and 89% | 21.6 | 77 | 26% and 48% | 103% and 90% | 94 µL/min/mg and 237 µL/min/mg | 17.7 min and 7 min | 44 | 37.8 | CNC(=O)Cn1cc(-c2cc3c(N[C@@H](c4ccc5c(c4)S(=O)(=O)CCC5)C(C)C)ncnc3[nH]2)cn1
1090 | 2 | 105.597 | 84.68% | 206 | 7 | 115.387% | 100.411% | – | – | – | – | COc1ccc([C@H](Cc2nnn[nH]2)NC(=O)c2ncnc3[nH]ccc23)cc1
